Source: US11180461B2, “Triazoles as Kv3 inhibitors” (AUTIFONY THERAPEUTICS LIMITED, priority 2012, dated 2021)

Target: T1, human Kv3.3 channels (hKv3.3) (Homo sapiens, UniProt Q14003)
T1 construct: expressed in transfected cells
T1 sequence (Q14003 1-757): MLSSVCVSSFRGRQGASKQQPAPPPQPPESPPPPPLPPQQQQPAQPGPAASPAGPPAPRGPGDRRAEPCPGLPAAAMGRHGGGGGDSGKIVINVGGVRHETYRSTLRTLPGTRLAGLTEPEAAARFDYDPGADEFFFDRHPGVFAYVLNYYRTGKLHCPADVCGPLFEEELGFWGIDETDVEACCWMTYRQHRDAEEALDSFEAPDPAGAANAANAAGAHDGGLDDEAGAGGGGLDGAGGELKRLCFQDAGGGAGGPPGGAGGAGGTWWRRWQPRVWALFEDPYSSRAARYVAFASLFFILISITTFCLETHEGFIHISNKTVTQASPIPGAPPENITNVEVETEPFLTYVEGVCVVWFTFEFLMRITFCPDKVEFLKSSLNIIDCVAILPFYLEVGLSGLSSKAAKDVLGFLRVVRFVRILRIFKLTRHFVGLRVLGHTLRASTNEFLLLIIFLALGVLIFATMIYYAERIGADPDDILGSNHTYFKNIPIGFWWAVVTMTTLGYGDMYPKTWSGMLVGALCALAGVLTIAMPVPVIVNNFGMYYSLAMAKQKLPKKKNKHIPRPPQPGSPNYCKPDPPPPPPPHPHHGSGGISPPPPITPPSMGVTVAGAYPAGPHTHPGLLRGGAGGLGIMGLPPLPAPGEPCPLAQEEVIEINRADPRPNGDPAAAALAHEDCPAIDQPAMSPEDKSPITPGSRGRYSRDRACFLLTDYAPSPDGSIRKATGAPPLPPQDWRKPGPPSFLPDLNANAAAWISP
Experiment: hKv3.3 recombinant cell assay, IonWorks Quattro planar array electrophysiology
Assay type: cell-based
Settings: 12.5 micromolar; mean, n=2
Source text: The ability of the compounds of the invention to modulate the voltage-gated potassium channel subtypes Kv3.2/3.1 may be determined using the following assay. The assay may also be used to determine the ability of compounds of the invention to modulate the voltage-gated potassium channel Kv3.3. Analogous methods may be used to investigate the ability of the compounds of the invention to modulate other channel subtypes.
To assess compound effects on human Kv3.3 channels (hKv3.3), a stable cell line expressing human Kv3.3 channels was created by transfecting Chinese Hamster Ovary (CHO)—K1 cells with a pBacMire_KCNC-3 vector. Cells were cultured in DMEM/F12 (Gibco) supplemented with 10% Foetal Bovine Serum (Gibco), 1× non-essential amino acids (Invitrogen) and geneticin (G418) 400 microg/mL. Cells were grown and maintained at 37° C. in a humidified environment containing 5% CO2 in air. […]
Experiments were conducted at room temperature using IonWorks Quattro™ planar array electrophysiology technology (Molecular Devices Corp.) with PatchPlate™ PPC. […] Planar electrode hole resistances (Rp) were determined by applying a 10 mV voltage step across each well. […] Test pulses protocol may be performed in the absence (pre-read) and presence (post-read) of the test compound. Pre- and post-reads may be separated by the compound addition followed by a 3 minute incubation. […]

- increase in human Kv3.3 peak current at 0 mV: 75%
SMILES: Cc1ccc(Oc2ccc(-n3c(C)n[nH]c3=O)cn2)c2c1OCC21CC1 [Example 14, 5-methyl-4-{6-[(7-methylspiro[1-benzofuran-3,1′-cyclopropan]-4-yl)oxy]pyridin-3-yl}-2,4-dihydro-3H-1,2,4-triazol-3-one]
